ChEMBL document CHEMBL3797047, “Discovery of indirubin derivatives as new class of DRAK2 inhibitors from high throughput screening” (Bioorg Med Chem Lett, 2016)
One block for each molecule: values may come before it.

Experiments:
[1] = biological target: T1, Serine/threonine-protein kinase 17B (Homo sapiens, UniProt O94768); assay: Inhibition of DRAK2 (unknown origin) using MRLC3 peptide as substrate incubated for 2 hrs by ADP-Glo kinase assay
T1 sequence (O94768 whole entry): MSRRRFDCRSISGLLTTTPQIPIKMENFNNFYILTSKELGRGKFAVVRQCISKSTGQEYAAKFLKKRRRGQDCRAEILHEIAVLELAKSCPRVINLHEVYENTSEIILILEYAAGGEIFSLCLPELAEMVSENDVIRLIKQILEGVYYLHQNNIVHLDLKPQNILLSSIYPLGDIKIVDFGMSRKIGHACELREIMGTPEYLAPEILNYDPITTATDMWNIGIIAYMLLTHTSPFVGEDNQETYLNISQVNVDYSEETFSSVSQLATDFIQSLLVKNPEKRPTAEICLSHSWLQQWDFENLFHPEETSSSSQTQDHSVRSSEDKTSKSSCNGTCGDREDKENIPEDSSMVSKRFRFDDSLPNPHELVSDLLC

[2] = biological target: T1, Serine/threonine-protein kinase 17B; assay: Competitive inhibition of DRAK2 (unknown origin) using MRLC3 peptide as substrate incubated for 2 hrs by Lineweaver-Burk plot analysis in presence of ATP
[3] = biological target: Death-associated protein kinase 3 (Homo sapiens, UniProt O43293); assay: Inhibition of DAPK3 (unknown origin)
[4] = biological target: Maternal embryonic leucine zipper kinase (Homo sapiens, UniProt Q14680); assay: Inhibition of MELK (unknown origin) using peptide substrate incubated for 30 mins by europium donor dye-based plate reader analysis
[5] = biological target: T2, Serine/threonine-protein kinase 17A (Homo sapiens, UniProt Q9UEE5); assay: Inhibition of DRAK1 (unknown origin)
T2 sequence (Q9UEE5 whole entry): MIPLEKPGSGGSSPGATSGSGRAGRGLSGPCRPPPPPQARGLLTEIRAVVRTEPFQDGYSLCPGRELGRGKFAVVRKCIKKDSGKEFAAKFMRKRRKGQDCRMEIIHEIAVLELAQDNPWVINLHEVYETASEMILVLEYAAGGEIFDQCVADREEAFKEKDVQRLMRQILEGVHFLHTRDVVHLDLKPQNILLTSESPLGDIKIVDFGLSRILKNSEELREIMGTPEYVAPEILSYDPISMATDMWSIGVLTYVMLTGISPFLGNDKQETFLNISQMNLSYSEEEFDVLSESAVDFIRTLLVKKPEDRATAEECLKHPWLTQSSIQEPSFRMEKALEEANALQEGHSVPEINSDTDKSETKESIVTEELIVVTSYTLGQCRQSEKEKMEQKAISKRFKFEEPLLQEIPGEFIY

[6] = biological target: Death-associated protein kinase 1 (Homo sapiens, UniProt P53355); assay: Inhibition of DAPK1 (unknown origin)
Activated CDC42 kinase 1 = Activated CDC42 kinase 1 (Homo sapiens, UniProt Q07912); assay: Inhibition of AcK1 (unknown origin) using peptide substrate incubated for 30 mins by europium donor dye-based plate reader analysis
[7] = biological target: ALK tyrosine kinase receptor (Homo sapiens, UniProt Q9UM73); assay: Inhibition of ALK (unknown origin) using peptide substrate incubated for 30 mins by europium donor dye-based plate reader analysis
Insulin receptor = Insulin receptor (Homo sapiens, UniProt P06213); assay: Inhibition of IRK (unknown origin) using peptide substrate incubated for 30 mins by europium donor dye-based plate reader analysis
[8] = biological target: T3, Epidermal growth factor receptor (Homo sapiens, UniProt P00533); assay: Inhibition of EGFR (unknown origin) using peptide substrate incubated for 30 mins by europium donor dye-based plate reader analysis
[9] = biological target: T3, Epidermal growth factor receptor; assay: Inhibition of EGFR (746 to 750) deletion mutant (unknown origin) using peptide substrate incubated for 30 mins by europium donor dye-based plate reader analysis; format: protein assay
Target sequence in this assay (P00533 25-1210 limits assumed, stated change not applied): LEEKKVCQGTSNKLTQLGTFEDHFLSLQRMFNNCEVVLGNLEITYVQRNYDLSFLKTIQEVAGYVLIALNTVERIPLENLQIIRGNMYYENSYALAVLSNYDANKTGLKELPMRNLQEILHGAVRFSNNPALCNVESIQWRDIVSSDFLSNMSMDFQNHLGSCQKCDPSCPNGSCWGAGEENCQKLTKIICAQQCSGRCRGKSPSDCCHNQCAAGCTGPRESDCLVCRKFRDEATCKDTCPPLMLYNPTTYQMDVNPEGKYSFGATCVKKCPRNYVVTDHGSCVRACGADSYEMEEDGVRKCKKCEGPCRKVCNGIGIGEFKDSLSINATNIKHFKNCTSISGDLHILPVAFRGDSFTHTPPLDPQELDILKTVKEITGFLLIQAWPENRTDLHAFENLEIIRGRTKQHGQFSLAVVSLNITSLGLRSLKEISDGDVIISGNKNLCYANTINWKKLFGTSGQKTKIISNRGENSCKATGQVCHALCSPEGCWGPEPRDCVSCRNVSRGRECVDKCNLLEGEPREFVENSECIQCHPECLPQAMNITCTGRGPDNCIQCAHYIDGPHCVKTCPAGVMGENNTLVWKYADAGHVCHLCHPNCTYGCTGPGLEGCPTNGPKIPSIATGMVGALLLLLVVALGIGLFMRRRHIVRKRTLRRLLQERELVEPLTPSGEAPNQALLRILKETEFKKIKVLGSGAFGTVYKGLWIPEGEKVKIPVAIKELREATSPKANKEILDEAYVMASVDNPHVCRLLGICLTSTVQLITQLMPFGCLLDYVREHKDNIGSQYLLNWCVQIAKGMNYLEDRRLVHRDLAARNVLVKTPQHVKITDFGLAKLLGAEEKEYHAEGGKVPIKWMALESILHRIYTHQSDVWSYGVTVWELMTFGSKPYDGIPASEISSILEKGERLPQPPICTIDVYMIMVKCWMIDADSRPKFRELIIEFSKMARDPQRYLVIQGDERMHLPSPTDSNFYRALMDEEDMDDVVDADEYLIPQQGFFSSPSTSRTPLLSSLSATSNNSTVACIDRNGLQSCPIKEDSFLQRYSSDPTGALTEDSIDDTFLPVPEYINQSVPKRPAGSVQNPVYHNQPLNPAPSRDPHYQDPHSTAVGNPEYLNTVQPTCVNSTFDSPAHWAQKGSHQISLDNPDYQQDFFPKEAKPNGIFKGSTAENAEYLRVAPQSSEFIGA

[10] = biological target: Death-associated protein kinase 2 (Homo sapiens, UniProt Q9UIK4); assay: Inhibition of DAPK2 (unknown origin)
[11] = biological target: Hepatocyte growth factor receptor (Homo sapiens, UniProt P08581); assay: Inhibition of c-MET (unknown origin) using peptide substrate incubated for 30 mins by europium donor dye-based plate reader analysis

Chain of Death-associated protein kinase 2 (Q9UIK4 whole entry): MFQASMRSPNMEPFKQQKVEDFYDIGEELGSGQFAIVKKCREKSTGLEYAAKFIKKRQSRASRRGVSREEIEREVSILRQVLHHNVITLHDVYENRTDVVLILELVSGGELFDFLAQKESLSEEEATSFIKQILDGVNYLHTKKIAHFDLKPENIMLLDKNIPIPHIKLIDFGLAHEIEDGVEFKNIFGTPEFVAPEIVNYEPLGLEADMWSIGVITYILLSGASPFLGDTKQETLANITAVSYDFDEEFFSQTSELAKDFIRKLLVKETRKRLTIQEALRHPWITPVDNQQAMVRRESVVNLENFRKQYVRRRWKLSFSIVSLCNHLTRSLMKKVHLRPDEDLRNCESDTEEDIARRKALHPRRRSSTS
Chain of Insulin receptor (P06213 28-758 limits assumed): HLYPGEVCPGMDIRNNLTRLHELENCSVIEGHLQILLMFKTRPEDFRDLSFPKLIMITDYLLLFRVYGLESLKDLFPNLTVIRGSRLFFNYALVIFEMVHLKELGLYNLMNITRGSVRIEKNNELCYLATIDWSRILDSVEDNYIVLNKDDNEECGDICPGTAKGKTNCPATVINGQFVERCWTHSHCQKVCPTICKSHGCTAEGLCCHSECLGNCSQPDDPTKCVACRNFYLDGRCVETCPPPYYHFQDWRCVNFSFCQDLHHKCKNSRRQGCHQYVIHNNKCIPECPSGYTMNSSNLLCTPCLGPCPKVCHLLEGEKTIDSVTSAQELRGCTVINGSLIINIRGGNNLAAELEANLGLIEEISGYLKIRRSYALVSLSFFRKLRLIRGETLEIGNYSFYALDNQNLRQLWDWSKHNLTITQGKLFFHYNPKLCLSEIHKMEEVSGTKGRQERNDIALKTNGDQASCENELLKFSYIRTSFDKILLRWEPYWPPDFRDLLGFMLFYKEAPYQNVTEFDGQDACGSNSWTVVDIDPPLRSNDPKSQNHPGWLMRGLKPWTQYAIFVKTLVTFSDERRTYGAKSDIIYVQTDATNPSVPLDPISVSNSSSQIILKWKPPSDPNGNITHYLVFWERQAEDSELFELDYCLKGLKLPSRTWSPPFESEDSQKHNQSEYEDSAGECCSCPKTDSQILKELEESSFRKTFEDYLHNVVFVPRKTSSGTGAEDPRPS
Chain of Insulin receptor (P06213 763-1382 limits assumed): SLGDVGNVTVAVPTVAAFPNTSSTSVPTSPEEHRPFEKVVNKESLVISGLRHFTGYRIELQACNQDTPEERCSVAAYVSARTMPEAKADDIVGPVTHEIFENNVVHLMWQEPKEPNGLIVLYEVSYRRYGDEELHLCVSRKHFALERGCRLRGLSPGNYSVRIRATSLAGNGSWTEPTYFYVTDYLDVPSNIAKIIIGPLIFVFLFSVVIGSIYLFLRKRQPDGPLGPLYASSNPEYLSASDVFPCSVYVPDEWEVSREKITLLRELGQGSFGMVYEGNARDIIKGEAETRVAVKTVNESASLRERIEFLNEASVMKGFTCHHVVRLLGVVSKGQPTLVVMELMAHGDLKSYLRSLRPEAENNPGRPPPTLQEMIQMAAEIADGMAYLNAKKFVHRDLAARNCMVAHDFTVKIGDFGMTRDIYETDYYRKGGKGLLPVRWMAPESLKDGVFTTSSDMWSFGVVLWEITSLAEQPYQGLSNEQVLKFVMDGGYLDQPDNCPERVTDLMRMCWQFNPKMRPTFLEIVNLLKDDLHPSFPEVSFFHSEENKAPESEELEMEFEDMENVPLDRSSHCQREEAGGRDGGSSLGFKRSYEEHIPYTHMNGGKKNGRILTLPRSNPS
Chain of Maternal embryonic leucine zipper kinase (Q14680 whole entry): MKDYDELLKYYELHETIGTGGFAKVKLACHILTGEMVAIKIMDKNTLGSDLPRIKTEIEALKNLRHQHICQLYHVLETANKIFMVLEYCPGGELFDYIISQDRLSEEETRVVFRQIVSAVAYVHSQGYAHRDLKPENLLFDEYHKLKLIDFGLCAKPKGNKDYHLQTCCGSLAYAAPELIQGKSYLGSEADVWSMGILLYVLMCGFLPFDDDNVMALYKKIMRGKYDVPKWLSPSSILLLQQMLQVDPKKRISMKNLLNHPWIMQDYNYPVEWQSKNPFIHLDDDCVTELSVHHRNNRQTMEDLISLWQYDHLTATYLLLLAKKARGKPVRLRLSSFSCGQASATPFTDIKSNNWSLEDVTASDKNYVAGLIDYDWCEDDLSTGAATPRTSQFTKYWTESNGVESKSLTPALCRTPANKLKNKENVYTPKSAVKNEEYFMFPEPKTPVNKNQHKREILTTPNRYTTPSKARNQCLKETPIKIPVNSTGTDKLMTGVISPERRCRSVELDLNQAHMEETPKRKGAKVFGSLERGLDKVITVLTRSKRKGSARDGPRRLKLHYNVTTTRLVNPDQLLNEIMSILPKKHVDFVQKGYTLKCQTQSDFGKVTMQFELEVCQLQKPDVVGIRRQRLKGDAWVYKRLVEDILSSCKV
Chain of Activated CDC42 kinase 1 (Q07912 whole entry): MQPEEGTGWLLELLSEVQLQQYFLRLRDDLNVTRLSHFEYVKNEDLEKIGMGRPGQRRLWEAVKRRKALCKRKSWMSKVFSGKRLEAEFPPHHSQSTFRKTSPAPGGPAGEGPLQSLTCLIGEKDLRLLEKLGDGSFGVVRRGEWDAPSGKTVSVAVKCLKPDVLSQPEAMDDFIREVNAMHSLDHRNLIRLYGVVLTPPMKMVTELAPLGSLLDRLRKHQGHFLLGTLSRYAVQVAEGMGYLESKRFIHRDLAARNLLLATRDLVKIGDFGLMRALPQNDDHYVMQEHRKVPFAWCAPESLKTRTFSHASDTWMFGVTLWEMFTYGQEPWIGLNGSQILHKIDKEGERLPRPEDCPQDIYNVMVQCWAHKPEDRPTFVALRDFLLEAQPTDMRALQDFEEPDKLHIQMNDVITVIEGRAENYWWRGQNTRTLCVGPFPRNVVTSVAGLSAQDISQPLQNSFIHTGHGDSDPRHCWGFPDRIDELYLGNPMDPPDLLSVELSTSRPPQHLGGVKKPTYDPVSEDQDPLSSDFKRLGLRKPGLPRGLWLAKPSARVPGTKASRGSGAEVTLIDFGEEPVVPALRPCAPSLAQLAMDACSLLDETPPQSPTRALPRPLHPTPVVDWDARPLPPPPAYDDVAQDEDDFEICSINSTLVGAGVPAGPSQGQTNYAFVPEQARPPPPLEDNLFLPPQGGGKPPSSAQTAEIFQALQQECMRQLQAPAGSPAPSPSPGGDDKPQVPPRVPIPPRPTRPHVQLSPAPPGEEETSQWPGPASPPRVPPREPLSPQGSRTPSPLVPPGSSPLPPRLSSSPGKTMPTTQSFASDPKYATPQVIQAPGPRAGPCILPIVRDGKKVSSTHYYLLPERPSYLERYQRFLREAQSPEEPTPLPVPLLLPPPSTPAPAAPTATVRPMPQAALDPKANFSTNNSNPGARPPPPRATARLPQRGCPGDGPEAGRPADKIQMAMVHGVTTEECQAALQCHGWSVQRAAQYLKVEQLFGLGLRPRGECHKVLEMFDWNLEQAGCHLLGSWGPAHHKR
Chain of Death-associated protein kinase 3 (O43293 whole entry): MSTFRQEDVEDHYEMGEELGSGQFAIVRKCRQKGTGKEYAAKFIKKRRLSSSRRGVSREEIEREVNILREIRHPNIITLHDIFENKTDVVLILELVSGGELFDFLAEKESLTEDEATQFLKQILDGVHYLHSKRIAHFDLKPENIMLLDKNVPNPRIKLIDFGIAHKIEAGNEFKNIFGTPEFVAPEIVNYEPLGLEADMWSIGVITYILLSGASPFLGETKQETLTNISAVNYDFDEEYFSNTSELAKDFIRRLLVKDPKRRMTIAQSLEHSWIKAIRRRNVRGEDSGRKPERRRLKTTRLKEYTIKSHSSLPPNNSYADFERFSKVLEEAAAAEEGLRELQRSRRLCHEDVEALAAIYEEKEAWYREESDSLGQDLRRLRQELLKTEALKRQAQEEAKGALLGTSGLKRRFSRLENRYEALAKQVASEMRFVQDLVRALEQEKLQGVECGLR

Compound: O=C1Nc2ccc(F)cc2/C1=C1/Nc2ccccc2C1=O
IC50 [1]: > 10000 nM

Compound: O=C(COc1cccc(Cl)c1)Nc1ccc2c(c1)/C(=C1/Nc3ccccc3/C1=N\O)C(=O)N2
IC50 [1]: 950 nM
IC50 [5]: 460 nM

Compound: O=C1Nc2ccc(I)cc2/C1=C1/Nc2ccccc2C1=O
IC50 [1]: 6200 nM

Compound: O=C1Nc2ccc(NC(=O)c3ccc(Cl)cc3)cc2/C1=C1/Nc2ccccc2/C1=N\O
IC50 [1]: 3200 nM
IC50 [5]: 3000 nM

Compound: O=C1Nc2ccc(NC(=O)c3ccc(F)cc3)cc2/C1=C1/Nc2ccccc2/C1=N\O
IC50 [1]: 1200 nM
IC50 [5]: 780 nM

Compound: O=C1Nc2ccccc2/C1=C1/Nc2ccccc2C1=O [INDIRUBIN]
IC50 [1]: > 10000 nM

Compound: O=C1Nc2ccccc2/C1=C1/Nc2cccc(Br)c2C1=O
IC50 [1]: > 10000 nM

Compound: Cc1cc(C)c2c(c1)/C(=C1/Nc3ccccc3C1=O)C(=O)N2
IC50 [1]: > 10000 nM

Compound: Cc1ccc2c(c1)/C(=C1/Nc3ccccc3C1=O)C(=O)N2
IC50 [1]: > 10000 nM

Compound: O=C1Nc2ccccc2/C1=C1/Nc2ccccc2/C1=N\O
IC50 [1]: 710 nM

Compound: Cc1cc(Cl)cc2c1NC(=O)/C2=C1\Nc2ccccc2C1=O
IC50 [1]: > 10000 nM

Compound: O=C1Nc2ccc([N+](=O)[O-])cc2/C1=C1/Nc2cccc(Br)c2C1=O
IC50 [1]: > 10000 nM

Compound: O=C1Nc2ccc(NC(=O)c3ccc([N+](=O)[O-])cc3)cc2/C1=C1/Nc2ccccc2/C1=N\O
IC50 [1]: 1300 nM
IC50 [5]: 500 nM

Compound: O=C1Nc2ccc(Cl)cc2/C1=C1/Nc2ccccc2C1=O
IC50 [1]: > 10000 nM

Compound: Cc1ccc(C(=O)Nc2ccc3c(c2)/C(=C2/Nc4ccccc4/C2=N\O)C(=O)N3)cc1
IC50 [1]: 1300 nM
IC50 [5]: 1300 nM

Compound: Cc1cc(Cl)cc2c1NC(=O)/C2=C1\Nc2ccccc2\C1=N/O
IC50 [1]: > 10000 nM

Compound: Nc1ccc2c(c1)/C(=C1/Nc3ccccc3C1=O)C(=O)N2
IC50 [1]: 1400 nM

Compound: O=C1Nc2ccc(NC(=O)c3cccc4ccccc34)cc2/C1=C1/Nc2ccccc2/C1=N\O
IC50 [1]: 1500 nM
IC50 [5]: 700 nM

The next lines start with results.

IC50 [1]: 250 nM
Compound: Nc1ccc2c(c1)/C(=C1/Nc3ccccc3/C1=N\O)C(=O)N2

Ki [2]: 0.26 nM
IC50 [1]: 3 nM
IC50 [4]: > 10000 nM
IC50 [5]: 51 nM
IC50 (Activated CDC42 kinase 1): > 10000 nM
IC50 [7]: > 10000 nM
IC50 (Insulin receptor): > 10000 nM
IC50 [8]: > 10000 nM
IC50 [9]: > 10000 nM
IC50 [11]: > 10000 nM
Compound: CCCCC(=O)Nc1ccc2c(c1)/C(=C1/Nc3ccccc3/C1=N\O)C(=O)N2
IC50 [3]: 1800 nM
IC50 [6]: 1800 nM
IC50 [10]: 2300 nM

IC50 [1]: 200 nM
IC50 [5]: 360 nM
Compound: O=C1Nc2ccc(NC(=O)c3ccccc3)cc2/C1=C1/Nc2ccccc2/C1=N\O

IC50 [1]: 10 nM
IC50 [4]: 1000 nM
IC50 [5]: 12 nM
IC50 (Activated CDC42 kinase 1): > 10000 nM
IC50 [7]: > 10000 nM
IC50 (Insulin receptor): > 10000 nM
IC50 [8]: > 10000 nM
IC50 [9]: 8000 nM
IC50 [11]: > 10000 nM
Compound: CCCC(=O)Nc1ccc2c(c1)/C(=C1/Nc3ccccc3/C1=N\O)C(=O)N2
IC50 [3]: 510 nM
IC50 [6]: 510 nM
IC50 [10]: 590 nM

IC50 [1]: 290 nM
IC50 [5]: 250 nM
Compound: O=C1Nc2ccc(NC(=O)c3ccccc3F)cc2/C1=C1/Nc2ccccc2/C1=N\O

IC50 [1]: 120 nM
IC50 [5]: 110 nM
Compound: O=C1Nc2ccc(NC(=O)C3CCCCC3)cc2/C1=C1/Nc2ccccc2/C1=N\O

IC50 [1]: 77 nM
IC50 [5]: 24 nM
Compound: O=C1Nc2ccc(NC(=O)c3cc([N+](=O)[O-])cc([N+](=O)[O-])c3)cc2/C1=C1/Nc2ccccc2/C1=N\O

IC50 [1]: 21 nM
IC50 [4]: 2800 nM
IC50 [5]: 32 nM
IC50 (Activated CDC42 kinase 1): > 10000 nM
IC50 [7]: > 10000 nM
IC50 (Insulin receptor): > 10000 nM
IC50 [8]: > 10000 nM
IC50 [9]: > 10000 nM
IC50 [11]: > 10000 nM
Compound: CC(C)(C)C(=O)Nc1ccc2c(c1)/C(=C1/Nc3ccccc3/C1=N\O)C(=O)N2
IC50 [3]: 700 nM
IC50 [6]: 700 nM
IC50 [10]: 830 nM

IC50 [1]: 120 nM
IC50 [5]: 320 nM
Compound: O=C1Nc2ccc(NC(=O)c3ccccc3C(F)(F)F)cc2/C1=C1/Nc2ccccc2/C1=N\O

IC50 [1]: 14 nM
IC50 [5]: 24 nM
Compound: CC(C)(C)CC(=O)Nc1ccc2c(c1)/C(=C1/Nc3ccccc3/C1=N\O)C(=O)N2
IC50 [3]: > 10000 nM
IC50 [6]: > 10000 nM
IC50 [10]: > 10000 nM

IC50 [1]: 700 nM
IC50 [5]: 1100 nM
Compound: O=C(/C=C/c1ccccc1)Nc1ccc2c(c1)/C(=C1/Nc3ccccc3/C1=N\O)C(=O)N2

IC50 [1]: 330 nM
IC50 [5]: 360 nM
Compound: COc1ccc(C(=O)Nc2ccc3c(c2)/C(=C2/Nc4ccccc4/C2=N\O)C(=O)N3)cc1

IC50 [1]: 8 nM
IC50 [5]: 21 nM
Compound: O=C1Nc2ccc(NC(=O)C3CC3)cc2/C1=C1/Nc2ccccc2/C1=N\O
IC50 [3]: 140 nM
IC50 [6]: 140 nM
IC50 [10]: 170 nM

IC50 [1]: 620 nM
Compound: O=C1Nc2ccc(F)cc2/C1=C1/Nc2ccccc2/C1=N\O

IC50 [1]: 14 nM
IC50 [5]: 120 nM
Compound: CC(C)=CC(=O)Nc1ccc2c(c1)/C(=C1/Nc3ccccc3/C1=N\O)C(=O)N2
IC50 [3]: 450 nM
IC50 [6]: 450 nM
IC50 [10]: 570 nM
